Source: article PMC4726814, “Molecular Characterization of E-Type Prostanoid Receptor 4 (EP4) from Ayu (Plecoglossus altivelis) and Its Functional Analysis in the Monocytes/Macrophages” (PLoS ONE, 2016)

Target: T1, PaEP4L (Plecoglossus altivelis, UniProt A0A142DUN0)
T1 construct: gene EP4; MG1 insect cell membranes
Test: [3H]-PGE2 saturation binding to MG1 insect cell membranes, Scatchard

T1 sequence (A0A142DUN0 1-459): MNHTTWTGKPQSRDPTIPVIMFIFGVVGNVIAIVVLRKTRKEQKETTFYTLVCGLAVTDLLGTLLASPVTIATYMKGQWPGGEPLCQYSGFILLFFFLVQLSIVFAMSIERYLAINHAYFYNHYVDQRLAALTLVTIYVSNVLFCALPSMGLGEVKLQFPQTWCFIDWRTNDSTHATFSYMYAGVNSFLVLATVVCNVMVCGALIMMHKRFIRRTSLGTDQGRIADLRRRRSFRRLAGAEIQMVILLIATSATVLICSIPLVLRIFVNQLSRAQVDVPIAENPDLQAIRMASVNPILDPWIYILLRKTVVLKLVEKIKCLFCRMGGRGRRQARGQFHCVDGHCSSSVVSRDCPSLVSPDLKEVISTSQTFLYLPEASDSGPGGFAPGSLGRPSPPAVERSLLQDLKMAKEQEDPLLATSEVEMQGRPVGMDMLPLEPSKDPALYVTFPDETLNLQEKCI

Kd: 120 nM
SMILES: CCCCC[C@H](O)/C=C/[C@H]1[C@H](O)CC(=O)[C@@H]1C/C=C\CCCC(=O)O [PGE2]
